Laboratory results taken from ChEMBL document CHEMBL2177025, “Chemical proteomics-based analysis of off-target binding profiles for rosiglitazone and pioglitazone: clues for assessing potential for cardiotoxicity” (J Med Chem, 2012).
Calls of active or inactive are those of the source. No cut-off for these calls is given here.

Assays:
[1] = molecular target: Hydroxyacyl-coenzyme A dehydrogenase, mitochondrial (Rattus norvegicus) (UniProt Q9WVK7); test: Binding affinity to mitochondrial short-chain L-3-hydroxyacyl-coenzyme A dehydrogenase in Sprague-Dawley rat heart homogenate after 15 mins by chromatographic analysis; assay type: tissue-based
[2] = molecular target: Dihydrolipoyllysine-residue succinyltransferase component of 2-oxoglutarate dehydrogenase complex, mitochondrial (Mus musculus) (UniProt Q9D2G2); test: Binding affinity to mouse mitochondrial dihydrolipoyllysine-residue succinyltransferase component of 2-oxoglutarate dehydrogenase complex by chromatographic analysis
[3] = molecular target: 2-oxoglutarate dehydrogenase complex component E1 (Mus musculus) (UniProt Q60597); test: Binding affinity to mouse mitochondrial 2-oxoglutarate dehydrogenase E1 component by chromatographic analysis
[4] = molecular target: Short-chain specific acyl-CoA dehydrogenase, mitochondrial (Rattus norvegicus) (UniProt P15651); test: Binding affinity to mitochondrial short-chain specific acyl-CoA dehydrogenase in Sprague-Dawley rat heart homogenate after 15 mins by chromatographic analysis; assay type: tissue-based
[5] = molecular target: T1, Long-chain specific acyl-CoA dehydrogenase, mitochondrial (Rattus norvegicus) (UniProt P15650); test: Binding affinity to mitochondrial long-chain specific acyl-CoA dehydrogenase in Sprague-Dawley rat heart homogenate after 15 mins by chromatographic analysis relative to rosiglitazone; assay type: tissue-based
T1 sequence (whole entry): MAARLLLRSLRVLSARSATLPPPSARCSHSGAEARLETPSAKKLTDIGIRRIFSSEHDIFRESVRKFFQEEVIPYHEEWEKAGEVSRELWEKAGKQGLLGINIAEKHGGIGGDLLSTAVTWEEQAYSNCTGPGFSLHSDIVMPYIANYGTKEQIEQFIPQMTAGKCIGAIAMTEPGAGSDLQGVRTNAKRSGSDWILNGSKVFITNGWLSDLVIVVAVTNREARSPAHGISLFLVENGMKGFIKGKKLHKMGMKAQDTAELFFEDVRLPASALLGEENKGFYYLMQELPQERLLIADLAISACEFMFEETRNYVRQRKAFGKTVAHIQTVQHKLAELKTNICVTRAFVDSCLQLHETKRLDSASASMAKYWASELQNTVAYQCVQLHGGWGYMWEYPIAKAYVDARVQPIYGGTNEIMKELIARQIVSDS

[6] = molecular target: Malate dehydrogenase, mitochondrial (Rattus norvegicus) (UniProt P04636); test: Binding affinity to mitochondrial malate dehydrogenase in Sprague-Dawley rat heart homogenate after 15 mins by chromatographic analysis; assay type: tissue-based
[7] = molecular target: L-lactate dehydrogenase B chain (Rattus norvegicus) (UniProt P42123); test: Binding affinity to L-lactate dehydrogenase B chain in Sprague-Dawley rat heart homogenate after 15 mins by chromatographic analysis relative to rosiglitazone; assay type: tissue-based
[8] = molecular target: Very long-chain specific acyl-CoA dehydrogenase, mitochondrial (Rattus norvegicus) (UniProt P45953); test: Binding affinity to mitochondrial very long-chain specific acyl-CoA dehydrogenase in Sprague-Dawley rat heart homogenate after 15 mins by chromatographic analysis; assay type: tissue-based
[9] = molecular target: Malate dehydrogenase, cytoplasmic (Mus musculus) (UniProt P14152); test: Binding affinity to mouse cytoplasmic malate dehydrogenase by chromatographic analysis
[10] = molecular target: Glyceraldehyde-3-phosphate dehydrogenase (Rattus norvegicus) (UniProt P04797); test: Binding affinity to glyceraldehyde 3-phosphate dehydrogenase in Sprague-Dawley rat heart homogenate after 15 mins by chromatographic analysis; assay type: tissue-based
[11] = molecular target: Glutamate dehydrogenase 1, mitochondrial (Rattus norvegicus) (UniProt P10860); test: Binding affinity to mitochondrial glutamate dehydrogenase 1 in Sprague-Dawley rat heart homogenate after 15 mins by chromatographic analysis; assay type: tissue-based
[12] = molecular target: L-lactate dehydrogenase A chain (Rattus norvegicus) (UniProt P04642); test: Binding affinity to L-lactate dehydrogenase A chain in Sprague-Dawley rat heart homogenate after 15 mins by chromatographic analysis; assay type: tissue-based
[13] = molecular target: T2, Dihydrolipoyl dehydrogenase, mitochondrial (Mus musculus) (UniProt O08749); test: Binding affinity to mouse mitochondrial dihydrolipoyl dehydrogenase by chromatographic analysis relative to rosiglitazone
T2 sequence (whole entry): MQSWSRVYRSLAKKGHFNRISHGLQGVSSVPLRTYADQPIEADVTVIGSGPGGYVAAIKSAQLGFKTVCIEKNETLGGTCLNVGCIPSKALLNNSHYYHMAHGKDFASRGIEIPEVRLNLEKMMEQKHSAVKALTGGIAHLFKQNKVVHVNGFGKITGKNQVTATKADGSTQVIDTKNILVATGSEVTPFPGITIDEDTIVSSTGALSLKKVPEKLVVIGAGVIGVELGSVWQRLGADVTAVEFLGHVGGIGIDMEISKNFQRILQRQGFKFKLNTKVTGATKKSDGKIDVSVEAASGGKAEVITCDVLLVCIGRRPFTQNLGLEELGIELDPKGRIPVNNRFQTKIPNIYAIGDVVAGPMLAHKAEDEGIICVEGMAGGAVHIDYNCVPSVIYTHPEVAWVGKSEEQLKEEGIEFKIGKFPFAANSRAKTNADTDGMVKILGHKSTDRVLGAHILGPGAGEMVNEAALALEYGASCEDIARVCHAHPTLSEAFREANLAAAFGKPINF

[14] = molecular target: Pyruvate dehydrogenase E1 component subunit alpha, somatic form, mitochondrial (Rattus norvegicus) (UniProt P26284); test: Binding affinity to mitochondrial pyruvate dehydrogenase E1 component subunit alpha in Sprague-Dawley rat heart homogenate after 15 mins by chromatographic analysis; assay type: tissue-based
[15] = molecular target: Medium-chain specific acyl-CoA dehydrogenase, mitochondrial (Rattus norvegicus) (UniProt P08503); test: Binding affinity to mitochondrial medium-chain specific acyl-CoA dehydrogenase in Sprague-Dawley rat heart homogenate after 15 mins by chromatographic analysis; assay type: tissue-based
[16] = molecular target: Isocitrate dehydrogenase [NADP], mitochondrial (Mus musculus) (UniProt P54071); test: Binding affinity to mouse mitochondrial isocitrate dehydrogenase by chromatographic analysis
Isocitrate dehydrogenase [NADP], mitochondrial (Mus musculus), sequence (P54071 whole entry): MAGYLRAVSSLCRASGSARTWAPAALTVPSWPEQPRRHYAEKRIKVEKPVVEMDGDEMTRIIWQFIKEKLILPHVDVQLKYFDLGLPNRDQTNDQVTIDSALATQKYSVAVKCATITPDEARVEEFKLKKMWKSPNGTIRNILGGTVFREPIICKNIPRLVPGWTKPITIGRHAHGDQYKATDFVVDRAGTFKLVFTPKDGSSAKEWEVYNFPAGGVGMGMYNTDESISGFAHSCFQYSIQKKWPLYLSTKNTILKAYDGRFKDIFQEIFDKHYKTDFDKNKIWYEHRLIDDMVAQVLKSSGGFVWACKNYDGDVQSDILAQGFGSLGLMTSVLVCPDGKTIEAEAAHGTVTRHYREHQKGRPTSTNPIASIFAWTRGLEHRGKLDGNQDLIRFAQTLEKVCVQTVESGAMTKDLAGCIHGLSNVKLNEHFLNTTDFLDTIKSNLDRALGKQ

Short-chain specific acyl-CoA dehydrogenase, mitochondrial (Rattus norvegicus), sequence (P15651 whole entry): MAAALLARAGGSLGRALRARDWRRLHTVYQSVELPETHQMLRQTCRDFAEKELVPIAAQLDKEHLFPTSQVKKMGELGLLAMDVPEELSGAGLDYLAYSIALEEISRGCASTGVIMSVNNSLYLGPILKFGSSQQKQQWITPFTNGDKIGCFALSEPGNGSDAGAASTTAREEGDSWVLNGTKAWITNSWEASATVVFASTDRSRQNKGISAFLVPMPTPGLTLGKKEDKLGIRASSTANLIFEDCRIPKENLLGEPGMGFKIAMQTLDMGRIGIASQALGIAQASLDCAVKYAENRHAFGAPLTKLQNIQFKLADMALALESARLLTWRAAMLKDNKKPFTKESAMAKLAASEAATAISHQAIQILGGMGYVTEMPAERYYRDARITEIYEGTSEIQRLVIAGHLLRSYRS
L-lactate dehydrogenase B chain (Rattus norvegicus), sequence (P42123 whole entry): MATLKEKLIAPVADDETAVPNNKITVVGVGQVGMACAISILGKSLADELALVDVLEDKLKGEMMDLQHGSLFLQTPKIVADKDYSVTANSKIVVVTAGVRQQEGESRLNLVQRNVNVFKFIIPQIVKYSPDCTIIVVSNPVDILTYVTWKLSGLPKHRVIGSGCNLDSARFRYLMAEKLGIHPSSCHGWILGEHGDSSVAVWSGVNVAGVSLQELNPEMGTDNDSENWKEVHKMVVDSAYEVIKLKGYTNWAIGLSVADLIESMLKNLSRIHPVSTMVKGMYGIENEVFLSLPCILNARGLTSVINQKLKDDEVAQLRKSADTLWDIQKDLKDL
Glyceraldehyde-3-phosphate dehydrogenase (Rattus norvegicus), sequence (P04797 whole entry): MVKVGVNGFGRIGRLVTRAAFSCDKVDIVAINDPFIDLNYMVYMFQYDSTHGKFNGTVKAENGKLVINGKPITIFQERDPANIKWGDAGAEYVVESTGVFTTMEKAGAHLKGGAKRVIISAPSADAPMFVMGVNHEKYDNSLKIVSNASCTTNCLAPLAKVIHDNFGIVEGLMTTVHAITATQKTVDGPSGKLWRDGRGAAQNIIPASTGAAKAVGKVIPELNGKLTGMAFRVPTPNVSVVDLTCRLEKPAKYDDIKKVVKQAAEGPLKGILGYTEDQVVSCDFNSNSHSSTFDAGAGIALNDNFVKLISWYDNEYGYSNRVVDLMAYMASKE
Malate dehydrogenase, cytoplasmic (Mus musculus), sequence (P14152 whole entry): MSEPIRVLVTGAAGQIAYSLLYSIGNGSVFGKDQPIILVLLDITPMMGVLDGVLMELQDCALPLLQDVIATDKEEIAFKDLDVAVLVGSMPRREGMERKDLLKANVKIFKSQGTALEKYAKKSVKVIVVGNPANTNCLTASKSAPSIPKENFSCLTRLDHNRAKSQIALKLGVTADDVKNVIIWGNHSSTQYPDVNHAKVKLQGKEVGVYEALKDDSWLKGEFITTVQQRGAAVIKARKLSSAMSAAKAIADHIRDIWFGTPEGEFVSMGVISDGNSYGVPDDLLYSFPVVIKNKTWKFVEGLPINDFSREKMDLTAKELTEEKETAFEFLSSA
Medium-chain specific acyl-CoA dehydrogenase, mitochondrial (Rattus norvegicus), sequence (P08503 whole entry): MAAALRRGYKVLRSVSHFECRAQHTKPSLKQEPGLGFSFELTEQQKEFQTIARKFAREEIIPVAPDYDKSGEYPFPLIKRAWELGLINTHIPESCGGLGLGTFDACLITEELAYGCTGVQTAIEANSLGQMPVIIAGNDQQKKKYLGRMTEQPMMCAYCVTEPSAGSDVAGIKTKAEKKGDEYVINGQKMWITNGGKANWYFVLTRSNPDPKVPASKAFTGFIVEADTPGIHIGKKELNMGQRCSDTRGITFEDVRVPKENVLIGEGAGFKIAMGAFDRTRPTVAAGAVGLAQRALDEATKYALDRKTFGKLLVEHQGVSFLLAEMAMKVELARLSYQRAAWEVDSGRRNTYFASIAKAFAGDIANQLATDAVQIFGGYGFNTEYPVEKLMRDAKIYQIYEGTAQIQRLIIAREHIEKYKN
Hydroxyacyl-coenzyme A dehydrogenase, mitochondrial (Rattus norvegicus), sequence (Q9WVK7 whole entry): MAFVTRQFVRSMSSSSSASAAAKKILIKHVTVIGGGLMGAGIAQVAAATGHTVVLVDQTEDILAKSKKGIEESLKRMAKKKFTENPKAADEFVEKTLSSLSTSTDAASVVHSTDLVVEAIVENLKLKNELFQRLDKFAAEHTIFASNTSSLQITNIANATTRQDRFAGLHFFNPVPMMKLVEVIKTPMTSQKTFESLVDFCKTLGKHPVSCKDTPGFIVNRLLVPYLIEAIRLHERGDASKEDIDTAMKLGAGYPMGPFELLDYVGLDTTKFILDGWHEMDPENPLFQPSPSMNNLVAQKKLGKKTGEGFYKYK
Glutamate dehydrogenase 1, mitochondrial (Rattus norvegicus), sequence (P10860 whole entry): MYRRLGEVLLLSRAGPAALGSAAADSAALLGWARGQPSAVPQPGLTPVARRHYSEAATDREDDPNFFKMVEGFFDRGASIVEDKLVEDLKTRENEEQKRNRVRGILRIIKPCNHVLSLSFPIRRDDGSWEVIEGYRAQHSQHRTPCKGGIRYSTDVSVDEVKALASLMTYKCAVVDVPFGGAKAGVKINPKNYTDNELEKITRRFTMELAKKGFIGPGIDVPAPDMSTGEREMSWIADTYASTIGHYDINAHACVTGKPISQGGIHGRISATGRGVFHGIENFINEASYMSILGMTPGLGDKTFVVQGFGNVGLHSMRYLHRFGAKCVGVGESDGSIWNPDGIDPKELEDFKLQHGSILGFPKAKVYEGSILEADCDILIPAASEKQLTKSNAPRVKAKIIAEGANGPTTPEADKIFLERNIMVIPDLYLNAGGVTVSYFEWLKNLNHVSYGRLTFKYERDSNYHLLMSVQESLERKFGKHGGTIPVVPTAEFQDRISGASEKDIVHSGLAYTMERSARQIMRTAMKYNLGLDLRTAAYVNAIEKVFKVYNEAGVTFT
Malate dehydrogenase, mitochondrial (Rattus norvegicus), sequence (P04636 whole entry): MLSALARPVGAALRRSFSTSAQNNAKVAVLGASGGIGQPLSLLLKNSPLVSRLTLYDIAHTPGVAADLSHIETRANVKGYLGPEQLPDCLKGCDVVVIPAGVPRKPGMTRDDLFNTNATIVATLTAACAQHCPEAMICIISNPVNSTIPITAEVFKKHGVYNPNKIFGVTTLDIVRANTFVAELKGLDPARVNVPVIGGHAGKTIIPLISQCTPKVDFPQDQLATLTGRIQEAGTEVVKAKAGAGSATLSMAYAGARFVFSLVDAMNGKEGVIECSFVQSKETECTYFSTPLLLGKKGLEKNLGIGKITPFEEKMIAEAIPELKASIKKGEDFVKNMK
Dihydrolipoyllysine-residue succinyltransferase component of 2-oxoglutarate dehydrogenase complex, mitochondrial (Mus musculus), sequence (Q9D2G2 whole entry, one chain of several): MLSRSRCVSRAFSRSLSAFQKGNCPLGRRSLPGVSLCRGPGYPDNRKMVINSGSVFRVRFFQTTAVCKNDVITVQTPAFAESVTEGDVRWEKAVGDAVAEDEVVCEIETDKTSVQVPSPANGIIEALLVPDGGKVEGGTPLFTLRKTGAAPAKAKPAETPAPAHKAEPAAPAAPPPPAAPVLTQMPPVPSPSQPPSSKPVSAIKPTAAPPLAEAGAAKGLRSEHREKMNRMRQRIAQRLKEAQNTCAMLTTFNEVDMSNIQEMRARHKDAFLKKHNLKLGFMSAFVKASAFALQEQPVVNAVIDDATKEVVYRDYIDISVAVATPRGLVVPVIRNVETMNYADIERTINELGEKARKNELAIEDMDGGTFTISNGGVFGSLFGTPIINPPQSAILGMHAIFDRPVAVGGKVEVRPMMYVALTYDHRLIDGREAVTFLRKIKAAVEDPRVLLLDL
2-oxoglutarate dehydrogenase complex component E1 (Mus musculus), sequence (Q60597 whole entry, one chain of several): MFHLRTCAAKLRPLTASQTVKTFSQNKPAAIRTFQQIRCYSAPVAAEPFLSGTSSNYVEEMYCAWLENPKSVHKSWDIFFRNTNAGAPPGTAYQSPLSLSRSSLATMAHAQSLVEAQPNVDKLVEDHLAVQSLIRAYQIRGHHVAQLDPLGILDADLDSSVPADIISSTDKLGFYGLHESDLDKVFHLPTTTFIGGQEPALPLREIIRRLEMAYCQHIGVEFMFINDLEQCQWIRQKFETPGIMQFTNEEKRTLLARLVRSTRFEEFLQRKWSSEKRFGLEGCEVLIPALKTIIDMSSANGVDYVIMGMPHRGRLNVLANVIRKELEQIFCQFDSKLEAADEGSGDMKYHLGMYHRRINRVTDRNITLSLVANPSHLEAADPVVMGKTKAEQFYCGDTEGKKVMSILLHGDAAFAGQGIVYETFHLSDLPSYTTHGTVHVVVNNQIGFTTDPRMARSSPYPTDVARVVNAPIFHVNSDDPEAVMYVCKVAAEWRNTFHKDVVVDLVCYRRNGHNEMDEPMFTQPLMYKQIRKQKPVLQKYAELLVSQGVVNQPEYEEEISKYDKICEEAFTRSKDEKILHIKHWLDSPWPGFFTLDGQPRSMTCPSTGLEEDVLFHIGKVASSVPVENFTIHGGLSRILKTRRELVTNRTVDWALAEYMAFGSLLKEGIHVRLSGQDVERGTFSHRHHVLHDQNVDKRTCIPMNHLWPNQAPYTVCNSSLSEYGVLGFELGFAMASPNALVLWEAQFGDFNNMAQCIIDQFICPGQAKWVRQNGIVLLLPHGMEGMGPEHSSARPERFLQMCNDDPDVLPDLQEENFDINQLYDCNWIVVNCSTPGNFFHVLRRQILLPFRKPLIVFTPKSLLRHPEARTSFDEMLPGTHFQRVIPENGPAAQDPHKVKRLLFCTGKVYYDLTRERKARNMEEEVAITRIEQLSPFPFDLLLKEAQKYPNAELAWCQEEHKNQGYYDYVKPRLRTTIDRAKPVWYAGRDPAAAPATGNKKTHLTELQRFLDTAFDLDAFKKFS

- Activity [1]: Active
- Activity [2]: Active
- Activity [3]: Active
- Activity [4]: Active
- Activity [5]: Active
- Activity [6]: Active
- Activity [7]: Active
- Activity [8]: Active
- Activity [9]: Active
- Activity [10]: Active
- Activity [11]: Active
- Activity [12]: Active
- Activity [13]: Active
- Activity [14]: Active
- Activity [15]: Active
- Activity [16]: Active
SMILES: O=C1NC(=O)C(Cc2ccc(O)cc2)S1 (stereo unspecified)
